Tests used:
Experiment in all cases: relative viability (nuclei count vs DMSO), 5 days (fraction); higher = more cells survive
Kobe2602 + Tozasertib = compound: C1=CC(=CC=C1NC(=S)NNC2=C(C=C(C=C2[N+](=O)[O-])C(F)(F)F)[N+](=O)[O-])F [Kobe2602] + Cc1cc(Nc2cc(N3CCN(C)CC3)nc(Sc3ccc(NC(=O)C4CC4)cc3)n2)n[nH]1 [Tozasertib] (partner 0.1 µM)
Method in brief: (§1)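 A single step with final 0.05% Triton X-100, 1% formaldehyde and 1 ug/ml Hoechst fixed the cells and stained nuclei 5 days after treatment. Lung cancer cell lines in 1536-well plates had been treated by pin tool the day after seeding with one drug alone or a fixed anchor-drug dose plus five library-drug doses (not always all listed) in √10 steps, and nuclei were counted on 4× images. Relative viability is the ratio of nuclei in treated wells to nuclei in vehicle wells, taken as the median of duplicate plates.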

[1] = compound: COc1cc2nccc(Oc3ccc(NC(=O)C4(C(=O)Nc5ccc(F)cc5)CC4)cc3)c2cc1OC [Cabozantinib] + CC(=O)Nc1cccc(-n2c(=O)n(C3CC3)c(=O)c3c(Nc4ccc(I)cc4F)n(C)c(=O)c(C)c32)c1 [Trametinib] (partner 0.02 µM)
Method in brief: as §1

[2] = compound: COc1cc2nccc(Oc3ccc(NC(=O)C4(C(=O)Nc5ccc(F)cc5)CC4)cc3)c2cc1OC [Cabozantinib] + Nc1nc2[nH]cc(CCc3ccc(C(=O)N[C@@H](CCC(=O)O)C(=O)O)cc3)c2c(=O)[nH]1 [Pemetrexed] (partner 0.2 µM)
Method in brief: as §1

Zosuquidar + Dasatinib = compound: O[C@@H](COc1cccc2ncccc12)CN1CCN([C@@H]2c3ccccc3[C@@H]3[C@H](c4ccccc42)C3(F)F)CC1 [Zosuquidar] + Cc1nc(Nc2ncc(C(=O)Nc3c(C)cccc3Cl)s2)cc(N2CCN(CCO)CC2)n1 [Dasatinib] (partner 0.075 µM)
Method in brief: as §1

Cell Line	relative viability (Kobe2602 + Tozasertib; first compound 0.2 µM)	relative viability (Kobe2602 + Tozasertib; first compound 0.6325 µM)	relative viability (Kobe2602 + Tozasertib; first compound 2 µM)	relative viability (Kobe2602 + Tozasertib; first compound 6.325 µM)	relative viability (Kobe2602 + Tozasertib; first compound 20 µM)	relative viability ([1]; first compound 0.02 µM)	relative viability ([1]; first compound 0.06325 µM)	relative viability ([1]; first compound 0.2 µM)	relative viability ([1]; first compound 0.6325 µM)	relative viability ([1]; first compound 2 µM)	relative viability ([2]; first compound 0.02 µM)	relative viability ([2]; first compound 0.06325 µM)	relative viability ([2]; first compound 0.2 µM)	relative viability ([2]; first compound 0.6325 µM)	relative viability ([2]; first compound 2 µM)	relative viability (Zosuquidar + Dasatinib; first compound 0.01 µM)	relative viability (Zosuquidar + Dasatinib; first compound 0.03162 µM)	relative viability (Zosuquidar + Dasatinib; first compound 0.1 µM)	relative viability (Zosuquidar + Dasatinib; first compound 0.3162 µM)	relative viability (Zosuquidar + Dasatinib; first compound 1 µM)
NCI-H460	0.342	0.402	0.411	0.154	0.0739	0.133	0.196	0.134	0.159	0.174	0.0695	0.0609	0.0626	0.0622	0.0696	0.428	0.364	0.453	0.855	0.485
NCI-H520	0.519	0.507	0.402	0.38	0.481	0.699	0.83	0.808	0.73	0.538	0.625	0.747	0.667	0.63	0.552	0.224	0.156	–	0.254	0.189
NCI-H522	0.68	0.644	0.552	0.592	0.568	0.823	0.819	0.78	0.861	0.69	1.16	0.972	0.943	1.25	0.934	0.933	0.739	0.867	0.853	1.45
NCI-H596	0.763	0.763	0.813	0.798	0.746	0.94	0.941	0.797	0.779	0.78	0.485	0.525	0.487	0.52	0.54	0.584	–	0.715	0.623	0.618
NCI-H647	0.213	0.315	0.181	0.192	0.347	0.541	0.451	0.449	0.424	0.41	0.165	0.192	0.162	0.149	0.133	0.168	0.121	0.137	0.229	0.163
NCI-H650	0.738	0.757	0.746	0.789	0.623	0.923	0.998	1.16	0.984	0.876	0.792	1.07	0.964	0.941	0.916	0.442	0.344	0.373	0.517	0.455
NCI-H661	0.382	0.34	0.376	0.376	0.355	0.542	0.653	0.579	0.572	0.605	0.959	0.941	0.981	0.939	1.07	0.812	0.756	0.922	1.03	0.865
NCI-H838	0.242	0.249	0.242	0.255	0.254	0.487	0.533	0.496	0.51	0.498	0.276	0.263	0.234	0.288	0.244	0.321	0.26	–	0.336	0.35
NCI-H1355	0.587	0.597	0.534	0.534	0.542	0.433	0.462	0.441	0.421	0.435	1.05	1.12	1.04	1.07	1.06	0.681	0.726	0.623	0.85	0.711
NCI-H1395	0.72	0.793	0.878	0.741	0.776	0.981	1.18	1.09	1.06	0.938	0.699	1.03	0.924	0.714	0.824	0.404	0.378	0.307	0.406	0.431
NCI-H1437	0.429	0.403	0.412	0.322	0.439	0.571	0.498	0.501	0.598	0.55	0.307	0.35	0.316	0.307	0.256	0.404	0.398	0.457	0.715	0.346
NCI-H1650	0.409	0.337	0.319	0.24	0.271	0.656	0.615	0.391	0.643	0.691	0.441	0.435	0.337	0.355	0.374	0.298	0.29	0.284	0.338	0.314
NCI-H1651	0.683	0.681	0.621	0.584	0.774	0.915	0.86	0.845	0.774	0.82	0.498	0.732	0.588	0.497	0.544	0.357	0.324	0.463	0.356	0.381
NCI-H1666	0.644	0.61	0.571	0.604	0.544	0.845	0.83	0.798	0.883	0.878	0.9	0.902	0.873	0.899	0.875	0.785	0.818	0.869	0.9	0.761
NCI-H1734	0.282	0.252	0.24	0.28	0.246	0.738	0.665	0.716	0.623	0.597	0.396	0.435	0.413	0.445	0.397	0.41	0.408	0.455	0.571	0.531
